{"source": "patent US20190374618A1", "about": "“FIBRONECTIN OR ILK INHIBITORS FOR USE IN THE TREATMENT OF LEUKEMIA” (Chemotherapeutisches Forschungsinstitut Georg-Speyer-Haus, priority 2016, published 2019)", "key": {"[1]": {"details": "patients, cardiovascular toxicity reference; cited from earlier work"}, "BCR-ABL1^T315I+ CML [2]": {"tested_on": "BCR-ABL1^T315I+ CML", "test": "intrafemoral co-injection of fibronectin with leukemia-initiating cells, retroviral transduction/transplantation model of CML", "format": "in vivo, mouse (Balb/c)", "description": "FIG. 7: White blood cell counts per μl in peripheral blood (a) and survival (b) of mice intravenously transplanted (no FN) or intrafemorally co-transplanted with BCR-ABL1 (gray colors)- or BCR-ABL1T315I (blue colors)-transduced bone marrow and vehicle or FN.\n(§1) The inventors have shown by immunofluorescence (FIG. 5) and immunohistochemistry of bone sections of mice transplanted with empty vector-transduced cells, or mice with BCR-ABL1^WT+ or BCR-ABL1^T315I+ CML-like myeloproliferative neoplasia (FIG. 6), that BCR-ABL1^T315I+ cells deposit less fibronectin in their environment than BCR-ABL1^WT+ cells, which is likely also reflected by their differences in their interaction with the BMM.\n(§2) Our retroviral stock was generated and bone marrow transplantation experiments were performed as described earlier (9, 14, 16). In general, we injected between 2.25 and 2.5×10^5 transduced cells into female irradiated (750 cGy) Balb/c recipient mice. The T315I point mutation in BCR-ABL1 was introduced by site-directed mutagenesis in the open reading frame of the MSCV IRES GFP vector.\n(§3) Therapeutic application of fibronectin was performed as follows: intravenous application of 200 μg bovine fibronectin (in HBSS) on days 9, 10 and 12 post transplantation; for vehicle control treatments, 200 μl of HBSS (equal volume to fibronectin dose) was administered. […]"}, "BCR-ABL1^T315I+ CML [3]": {"tested_on": "BCR-ABL1^T315I+ CML", "test": "intravenous fibronectin on days 9, 10 and 12 post transplantation, retroviral transduction/transplantation model of CML", "format": "in vivo, mouse (Balb/c)", "details": "three intravenous injections on days 9, 10 and 12 post transplantation, BCR-ABL1T315I+ CML vs vehicle-treated mice, FIG. 8", "description": "FIG. 8: Kaplan-Meier survival curve of mice intravenously transplanted with BCR-ABL1 (gray colours) or BCR-ABL1T315I (blue colours)-transduced bone marrow treated with vehicle or FN on days 9, 10 and 12 after transplantation.\nas §1, §2, §3"}, "LSC in CML": {"tested_on": "LSC in CML", "details": "but not AML; cited from earlier work"}}, "data": [{"molecule": "Cc1nc(Nc2ncc(C(=O)Nc3c(C)cccc3Cl)s2)cc(N2CCN(CCO)CC2)n1", "note": "[dasatinib]", "values": [{"measurement": "adverse events", "setting": "[1]", "result": "frequently associated with severe adverse events"}]}, {"molecule": "Cc1cn(-c2cc(NC(=O)c3ccc(C)c(Nc4nccc(-c5cccnc5)n4)c3)cc(C(F)(F)F)c2)cn1", "note": "[nilotinib]", "values": [{"measurement": "adverse events", "setting": "[1]", "result": "frequently associated with severe adverse events"}]}, {"molecule": "Cc1ccc(C(=O)Nc2ccc(CN3CCN(C)CC3)c(C(F)(F)F)c2)cc1C#Cc1cnc2cccnn12", "note": "[ponatinib]", "values": [{"measurement": "adverse events", "setting": "[1]", "result": "frequently associated with severe adverse events"}]}, {"molecule": "fibronectin: Murine fibronectin (Abcam ab92784) for intrafemoral injection; lyophilized bovine fibronectin (Thermo Fisher 33010018) for intravenous application", "values": [{"measurement": "tumor burden (white blood cell counts per μl in peripheral blood)", "setting": "BCR-ABL1^T315I+ CML [2]; intrafemoral co-injection of fibronectin with BCR-ABL1WT+ or BCR-ABL1T315I+ leukemia-initiating cells vs vehicle, FIG. 7a", "result": "significantly decreased the tumor burden"}, {"measurement": "survival", "setting": "BCR-ABL1^T315I+ CML [2]; recipients of BCR-ABL1T315I-transduced bone marrow, intrafemoral co-injection vs vehicle, FIG. 7b", "result": "prolonged survival"}, {"measurement": "survival", "setting": "BCR-ABL1^T315I+ CML [3]", "result": "significant prolongation of survival"}]}, {"molecule": "parathyroid hormone: the most potent regulator of bone turnover (protein, UniProt P01270 32-115, looked up, Parathyroid hormone) Parathyroid hormone: SVSEIQLMHNLGKHLNSMERVEWLRKKLQDVHNFVALGAPLAPRDAGSQRPRKKEDNVLVESHEKSLGEADKADVNVLTKAKSQ", "values": [{"measurement": "LSC number", "setting": "LSC in CML", "result": "reduction of LSC in CML"}]}]}
